# Measured values taken from patent US20260232767A1, “INTERLEUKIN-23 RECEPTOR ANTAGONIST PEPTIDES FOR USE IN THE TREATMENT OF PSORIASIS” (Janssen Pharmaceutica NV, priority 2023, published 2026).
# Tested on: subjects with moderate-to-severe plaque psoriasis
# Assay: Safety, adverse events, Example 2 through Week 56
# Type: in vivo, human
# Details: Combined; through Week 56
# Excerpt: The LTE safety analysis was based on randomized participants in Example who entered the present long-term extension study and received at least one dose of study intervention (including a partial dose) during the study period.
smiles,measurement,value
"CC(=O)NCCCC[C@@H]1NC(=O)[C@H](Cc2c[nH]c3c(C)cccc23)NC(=O)[C@H]([C@@H](C)O)NC(=O)[C@H](CC(N)=O)NC(=O)[C@@H](NC(C)=O)C(C)(C)SSC(C)(C)[C@@H](C(=O)N[C@@H](Cc2ccc(OCCN)cc2)C(=O)N[C@@H](Cc2ccc3ccccc3c2)C(=O)NC2(C(=O)N[C@@H](CCC(=O)O)C(=O)N[C@@H](CC(N)=O)C(=O)N[C@@H](Cc3cccnc3)C(=O)N(C)CC(N)=O)CCOCC2)NC1=O [IL-23 receptor antagonist peptide, Ac-[Pen]*-N-T-[W(7-Me)]-[Lys(Ac)]-[Pen]*-Phe[4-(2-aminoethoxy)]-[2-Nal]-[THP]-E-N-[3-Pal]-Sarc-NH2 (*[Pen]-[Pen]* formdisulfidebond)]",Coronary artery disease: % of subjects,(0.4%)
same,Coronary artery disease: number of subjects,1
same,Cough: % of subjects,(3.2%)
same,Cough: number of subjects,8
same,Decreased appetite: % of subjects,(0.4%)
same,Decreased appetite: number of subjects,1
same,Depression: % of subjects,(0.8%)
same,Depression: number of subjects,2
same,Dermal cyst: % of subjects,(0.4%)
same,Dermal cyst: number of subjects,1
same,Dermatitis acneiform: % of subjects,(0.4%)
same,Dermatitis acneiform: number of subjects,1
same,Dermatitis contact: % of subjects,(1.6%)
same,Dermatitis contact: number of subjects,4
same,Diabetes mellitus: % of subjects,(0.8%)
same,Diabetes mellitus: number of subjects,2
same,Diffuse alopecia: % of subjects,(0.4%)
same,Diffuse alopecia: number of subjects,1
same,Dysuria: % of subjects,(0.4%)
same,Dysuria: number of subjects,1
same,Ear and labyrinth disorders: % of subjects,(1.2%)
same,Ear and labyrinth disorders: number of subjects,3
same,Endocrine disorders: % of subjects,(0.4%)
same,Endocrine disorders: number of subjects,1
same,Eye disorders: % of subjects,(1.2%)
same,Eye disorders: number of subjects,3
same,Eyelid skin dryness: % of subjects,(0.4%)
same,Eyelid skin dryness: number of subjects,1
same,Fatigue: % of subjects,(1.6%)
same,Fatigue: number of subjects,4
same,General disorders and administration site conditions: % of subjects,(5.3%)
same,General disorders and administration site conditions: number of subjects,13
same,Goiter: % of subjects,(0.4%)
same,Goiter: number of subjects,1
same,Haemochromatosis: % of subjects,(0.4%)
same,Haemochromatosis: number of subjects,1
same,Hand dermatitis: % of subjects,(0.4%)
same,Hand dermatitis: number of subjects,1
same,Hematuria: % of subjects,(0.8%)
same,Hematuria: number of subjects,2
same,Hepatobiliary disorders: % of subjects,(1.2%)
same,Hepatobiliary disorders: number of subjects,3
same,Hypercholesterolemia: % of subjects,(0.4%)
same,Hypercholesterolemia: number of subjects,1
same,Hyperglycemia: % of subjects,(1.6%)
same,Hyperglycemia: number of subjects,4
same,Hyperlipidemia: % of subjects,(0.4%)
same,Hyperlipidemia: number of subjects,1
same,Hypertension: % of subjects,(2.8%)
same,Hypertension: number of subjects,7
same,Hypertransaminasemia: % of subjects,(0.4%)
same,Hypertransaminasemia: number of subjects,1
same,Hypertriglyceridemia: % of subjects,(0.4%)
same,Hypertriglyceridemia: number of subjects,1
same,Hypoacusis: % of subjects,(0.4%)
same,Hypoacusis: number of subjects,1
same,Immune system disorders: % of subjects,(0.8%)
same,Immune system disorders: number of subjects,2
same,Influenza like illness: % of subjects,(0.4%)
same,Influenza like illness: number of subjects,1
same,Insomnia: % of subjects,(0.8%)
same,Insomnia: number of subjects,2
same,Intertrigo: % of subjects,(0.4%)
same,Intertrigo: number of subjects,1
same,Ketonuria: % of subjects,(0.4%)
same,Ketonuria: number of subjects,1
same,Leukocyturia: % of subjects,(0.4%)
same,Leukocyturia: number of subjects,1
same,Leukopenia: % of subjects,(0.4%)
same,Leukopenia: number of subjects,1
same,Libido decreased: % of subjects,(0.4%)
same,Libido decreased: number of subjects,1
same,Liver disorder: number of subjects,0
same,Lymphopenia: % of subjects,(0.8%)
same,Lymphopenia: number of subjects,2
same,Menopause: % of subjects,(0.4%)
same,Menopause: number of subjects,1
same,Metabolism and nutrition disorders: % of subjects,(4.5%)
same,Metabolism and nutrition disorders: number of subjects,11
same,"Neoplasms benign, malignant and unspecified (incl cysts and polyps): % of subjects",(2.4%)
same,"Neoplasms benign, malignant and unspecified (incl cysts and polyps): number of subjects",6
same,Nephrolithiasis: % of subjects,(0.4%)
same,Nephrolithiasis: number of subjects,1
same,Neutropenia: % of subjects,(0.8%)
same,Neutropenia: number of subjects,2
same,Night sweats: % of subjects,(0.4%)
same,Night sweats: number of subjects,1
same,Non-cardiac chest pain: % of subjects,(0.4%)
same,Non-cardiac chest pain: number of subjects,1
same,Ocular cyst: % of subjects,(0.4%)
same,Ocular cyst: number of subjects,1
same,Oedema peripheral: % of subjects,(1.6%)
same,Oedema peripheral: number of subjects,4
same,Oropharyngeal pain: % of subjects,(0.8%)
same,Oropharyngeal pain: number of subjects,2
same,Procedural pain: % of subjects,(0.4%)
same,Procedural pain: number of subjects,1
same,Productive cough: % of subjects,(0.4%)
same,Productive cough: number of subjects,1
same,Proteinuria: % of subjects,(0.4%)
same,Proteinuria: number of subjects,1
same,Pruritus: % of subjects,(0.8%)
same,Pruritus: number of subjects,2
same,Psoriasis: % of subjects,(1.2%)
same,Psoriasis: number of subjects,3
same,Psychiatric disorders: % of subjects,(2.0%)
same,Psychiatric disorders: number of subjects,5
same,Pyrexia: % of subjects,(0.8%)
same,Pyrexia: number of subjects,2
same,Rash pruritic: number of subjects,0
same,Renal and urinary disorders: % of subjects,(3.2%)
same,Renal and urinary disorders: number of subjects,8
same,Renal mass: % of subjects,(0.4%)
same,Renal mass: number of subjects,1
same,"Respiratory, thoracic and mediastinal disorders: % of subjects",(5.3%)
same,"Respiratory, thoracic and mediastinal disorders: number of subjects",13
same,Retinal vein occlusion: % of subjects,(0.4%)
same,Retinal vein occlusion: number of subjects,1
same,Rhinorrhoea: % of subjects,(0.4%)
same,Rhinorrhoea: number of subjects,1
same,Seasonal allergy: % of subjects,(0.8%)
